# Experiments:
# [1] = test system: human acute lymphoblastic leukemia RS4;11 cells; test: Cell growth inhibition test against hematopoietic tumor cell lines (XTT), RS4;11; format: cell-based; conditions: 72 hours culture with compound, read-out: growth inhibitory activity, GI50 value
# From the text: (§1) As hematopoietic tumor cell lines, human acute lymphoblastic leukemia RS4;11 cells (ATCC No. CRL-1873), human chronic myeloid leukemia K-562 cells (ATCC No. CCL-243), and human multiple myeloma NCI-H929 cells (ATCC No. CRL-9068) were used. For the culture of the cells, RPMI 1640 Medium (Invitrogen, catalog No. 11875-093) containing 10% fetal bovine serum (Invitrogen, catalog No. 10099-141), 10 mmol/L 4-(2-hydroxyethyl)-1-piperazinethanesulfonic acid (HEPES) buffer (ICN Biomedicals, catalog No. 1688449), 1 mmol/L sodium pyruvate (Invitrogen, catalog No. 11360-070), 4.5 g/L glucose (Sigma-Aldrich, catalog No. G8769), 100 units/mL penicillin (Invitrogen, catalog No. 15140-122) and 100 μg/mL streptomycin (Invitrogen, catalog No. 15140-122) was used. The cells were cultured at 37° C. in a 5% carbon dioxide atmosphere.
# (§2) RS4;11 cells (20000 cells/well), K-562 cells (1000 cells/well), or NCI-H929 cells (15000 cells/well) were seeded in each well of 96-well plates (Nunc, catalog No. 167008), and cultured overnight. Test compounds diluted stepwise were added, and the cells were further cultured for 72 hours (final volume: 100 μL/well). Fifty μL XTT labeling mixture of Cell Proliferation Kit II (XTT) (Roche Diagnostics, catalog No. 1465015) was added to each well, and the plates were incubated at 37° C. After 4 hours, absorbance at 490 nm (reference wavelength: 655 nm) was measured with a plate reader (Molecular Device, SpectraMax 340PC^384). Growth ratios of the cells in the wells treated with the test compound was calculated based on the growth ratio of the cells in the control well treated with solvent (dimethyl sulfoxide (DMSO)) for 72 hours, which was defined as 100%.
# [2] = test system: human acute myeloid leukemia MV-4-11 cells; test: Cell growth inhibition test on acute myeloid leukemia cells (XTT), MV-4-11; format: cell-based; conditions: MV4-11, same manner as Test Example 1, read-out: growth inhibitory activity, GI50 value
# Description: as §2
# (§3) As cancer cell lines, human acute myeloid leukemia MV-4-11 cells (ATCC No. CRL-9591) and human non-Hodgkin's lymphoma SR cells (ATCC No. CRL-2262) were used. The cells were cultured at 37° C. in a 5% carbon dioxide atmosphere by using the mediums mentioned below, respectively.
# (§4) In the same manner as that of Test Example 1, the cells were seeded (8000 to 16000 cells/well, respectively) in each well of 96-well plates (Nunc, catalog No. 167008), and growth ratios of the cells treated with test compounds were calculated. Measurement of absorbance was performed at 3 to 4 hours after the addition of the XTT labeling mixture.
# [3] = test system: human multiple myeloma NCI-H929 cells; test: Cell growth inhibition test against hematopoietic tumor cell lines (XTT), NCI-H929; format: cell-based; conditions: 72 hours culture with compound, read-out: growth inhibitory activity, GI50 value
# From the text: as §1, §2
# [4] = test system: human chronic myeloid leukemia K-562 cells; test: Cell growth inhibition test against hematopoietic tumor cell lines (XTT), K-562; format: cell-based; conditions: K562, 72 hours culture with compound, read-out: growth inhibitory activity, GI50 value
# From the text: as §1, §2
# [5] = test system: human non-Hodgkin's lymphoma SR cells; test: Cell growth inhibition test on non-Hodgkin's lymphoma cells (XTT), SR; format: cell-based; conditions: same manner as Test Example 1, read-out: growth inhibitory activity, GI50 value
# Description: as §2, §3, §4
# [6] = biological target: T1, recombinant human Eg5 motor domain protein (Homo sapiens, UniProt P52732); test: Eg5 enzyme inhibition test (ATPase activity); format: biochemical; conditions: for inhibition of the ATPase activity of Eg5 (in words): 30° C., 30 minutes, absorbance at 360 nm; for Eg5 inhibitory activity compared with the corresponding racemic mixture (in words): versus Compounds 3, 4, 6, 7, 20, 14, 9, 8, the respectively corresponding racemic mixtures
# T1 construct: A plasmid expressing the motor domain of human Eg5 was constructed; made in house; host or cells: Escherichia coli BL21 (DE3)
# T1 sequence (P52732 18-359 limits assumed): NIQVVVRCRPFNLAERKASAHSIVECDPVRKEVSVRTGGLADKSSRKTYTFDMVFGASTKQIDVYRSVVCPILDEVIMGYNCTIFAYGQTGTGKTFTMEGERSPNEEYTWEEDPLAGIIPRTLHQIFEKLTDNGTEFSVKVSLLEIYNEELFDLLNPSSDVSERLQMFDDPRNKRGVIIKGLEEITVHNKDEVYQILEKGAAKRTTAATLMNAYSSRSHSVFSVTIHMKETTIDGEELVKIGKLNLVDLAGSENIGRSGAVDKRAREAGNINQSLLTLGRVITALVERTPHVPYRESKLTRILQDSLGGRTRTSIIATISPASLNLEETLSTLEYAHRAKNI
# Description: A recombinant human Eg5 motor domain protein was prepared by referring to the literature [Biochemistry, Vol. 35, p. […] A plasmid expressing the motor domain of human Eg5 was constructed, and transformed into Eseherichia coli BL21 (DE3). The transformant was cultured at 25° C., and when the OD600 reached 0.74, isopropyl-β-D-thiogalactoside was added at a final concentration of 0.5 mmol/L. The transformant was further cultured for 4 hours, and then the culture medium was centrifuged to collect the cells. The cells were suspended in a buffer and ultrasonicated, and then the sonicated solution was centrifuged to recover the supernatant. The supernatant was purified by cation exchange column chromatography to obtain a partially purified sample. Furthermore, the partially purified sample was purified by gel filtration column chromatography to obtain a finally purified sample.
# Measurement of the ATPase activity of Eg5 was carried out by referring to the literatures [EMBO Journal, Vol. 13, p. […] Solution A was dispensed into each well of a 96-well plate as 45 μL portions. Solution B was used to serially dilute a test compound. The diluted test compound solutions in a volume of 30 μL were mixed with Solution A added beforehand in each well of the 96-well plate to start the enzymatic reaction. The enzymatic reaction was performed at 30° C. for 30 minutes. […] The relative activity was calculated to calculate IC50 value.
Compound,GI50 [1],GI50 [2],GI50 [3],GI50 [4],melting point,GI50 [5],Eg5 inhibitory activity compared with the corresponding racemic mixture (in words) [6],inhibition of the ATPase activity of Eg5 (in words) [6]
"CN(C)CCCS(=O)(=O)NCC1(c2ccccc2)SC(NC(=O)C(C)(C)C)=NN1C(=O)C(C)(C)C (single isomer, unassigned; (-)) [Compound n, (−)-N-[5-(3-Dimethylaminopropanesulfonylaminomethyl)-4-(2,2-dimethylpropionyl)-5-phenyl-4,5-dihydro-1,3,4-thiadiazol-2-yl]-2,2-dimethylpropanamide]",< 10 µM,< 10 µM,< 10 µM,< 10 µM,92 to 95 °C,< 10 µM,–,–
"CCC(=O)N1N=C(N2CCCC2=O)SC1(CCNS(C)(=O)=O)c1ccccc1 (single isomer, unassigned; (-)) [Compound e, (−)-N-{2-[5-(2-Oxopyrrolidin-1-yl)-2-phenyl-3-propionyl-2,3-dihydro-1,3,4-thiadiazol-2-yl]ethyl}methanesulfonamide]",< 10 µM,< 10 µM,< 10 µM,< 10 µM,188 to 191 °C,< 10 µM,stronger inhibitory activities,inhibited the ATPase activity of Eg5 in a concentration-dependent manner
"CC(C)(C)C(=O)N1N=C(N2CCCC2=O)SC1(CCNS(C)(=O)=O)c1ccccc1 (single isomer, unassigned; (-)) [Compound c, (−)-N-{2-[3-(2,2-Dimethylpropionyl)-5-(2-oxopyrrolidin-1-yl)-2-phenyl-2,3-dihydro-1,3,4-thiadiazol-2-yl]ethyl}methanesulfonamide]",–,–,–,–,107 to 110 °C,–,–,–

# Continued, in another order:
GI50 [1],GI50 [2],GI50 [3],GI50 [4],melting point,GI50 [5],Eg5 inhibitory activity compared with the corresponding racemic mixture (in words) [6],Compound,inhibition of the ATPase activity of Eg5 (in words) [6]
< 10 µM,< 10 µM,< 10 µM,< 10 µM,101 to 104 °C,< 10 µM,–,"CN(C)CCS(=O)(=O)NCC1(c2ccccc2)SC(NC(=O)C(C)(C)C)=NN1C(=O)C(C)(C)C (single isomer, unassigned; (-)) [Compound m, (−)-N-[5-(2-Dimethylaminoethanesulfonylaminomethyl)-4-(2,2-dimethylpropionyl)-5-phenyl-4,5-dihydro-1,3,4-thiadiazol-2-yl]-2,2-dimethylpropanamide]",–
< 10 µM,< 10 µM,< 10 µM,< 10 µM,169 to 171 °C,< 10 µM,stronger inhibitory activities,"CC(=O)N1N=C(N2CCCCC2=O)SC1(CCNS(C)(=O)=O)c1ccccc1 (single isomer, unassigned; (-)) [Compound h, (−)-N-{2-[3-Acetyl-5-(2-oxopiperidino)-2-phenyl-2,3-dihydro-1,3,4-thiadiazol-2-yl]ethyl}methanesulfonamide]",inhibited the ATPase activity of Eg5 in a concentration-dependent manner

# From patent US20080262049A1, “Therapeutic Agent for Hematopoietic Tumor” (KYOWA HAKKO KOGYO CO., LTD., priority 2005, published 2008)
